# Experimental data from paper PMC10412597, “Small molecule branched-chain ketoacid dehydrogenase kinase (BDK) inhibitors with opposing effects on BDK protein levels” (Nature Communications, 2023).
# Experiments:
# Parameters in all cases: Cerep Bioprint off-target panel, functional receptor agonism or antagonism
# [1] = molecular target: T1, Adrenergic Beta 1 Adrenoceptor (Homo sapiens, UniProt P08588)
# T1 construct: gene ADRB1
# Protocol: (§1) To discover a potent and selective BDK inhibitor, a subset of the Pfizer compound collection was screened. […] Off target activity was assessed in both CEREP and kinase panels (Supplementary Tables 2, 3).
# [2] = molecular target: T2, Serotonin 5-HT1a Receptor (Homo sapiens, UniProt P08908); conditions: agonist
# T2 construct: gene HTR1A
# Protocol: as §1
# Dopamine 2S = molecular target: T3, Dopamine 2S (Homo sapiens, UniProt P14416)
# T3 construct: gene DRD2; short isoform (2S)
# Protocol: as §1
# Adenosine A2a Receptor = molecular target: T4, Adenosine A2a Receptor (Homo sapiens, UniProt P29274); conditions: agonist
# T4 construct: gene ADORA2A
# Protocol: as §1
# Cholecystokinin 2 = molecular target: T5, Cholecystokinin 2 (Homo sapiens, UniProt P32239); conditions: agonist
# T5 construct: gene CCKBR
# Protocol: as §1
# [3] = molecular target: T6, Adrenergic Beta 2 Adrenoceptor (Homo sapiens, UniProt P07550)
# T6 construct: gene ADRB2
# Protocol: as §1
# [4] = molecular target: T7, Thyrotopin Releasing Hormone 1 (TRH1) Receptor (Homo sapiens, UniProt P34981)
# T7 construct: gene TRHR
# T7 sequence (P34981 1-398): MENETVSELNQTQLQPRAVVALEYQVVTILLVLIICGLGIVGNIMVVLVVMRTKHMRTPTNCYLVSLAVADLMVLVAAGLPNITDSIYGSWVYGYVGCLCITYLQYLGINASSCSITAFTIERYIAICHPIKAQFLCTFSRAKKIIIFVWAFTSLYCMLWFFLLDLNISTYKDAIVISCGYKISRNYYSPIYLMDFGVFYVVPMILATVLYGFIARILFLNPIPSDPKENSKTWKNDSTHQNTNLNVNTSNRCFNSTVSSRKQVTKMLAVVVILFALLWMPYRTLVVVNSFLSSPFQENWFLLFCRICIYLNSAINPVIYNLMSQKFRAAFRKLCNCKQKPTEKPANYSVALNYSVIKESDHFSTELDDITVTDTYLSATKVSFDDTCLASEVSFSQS
# Protocol: as §1
# Adenosine A1 Receptor = molecular target: T8, Adenosine A1 Receptor (Homo sapiens, UniProt P30542); conditions: agonist
# T8 construct: gene ADORA1
# Protocol: as §1
# Mu Opiod = molecular target: T9, Mu Opiod (Homo sapiens, UniProt P35372); conditions: antagonist
# T9 construct: gene OPRM1
# Protocol: as §1
# [5] = molecular target: T10, Adrenergic Alpha 2b Adrenoceptor (Homo sapiens, UniProt P18089)
# T10 construct: gene ADRA2B
# T10 sequence (P18089 1-450): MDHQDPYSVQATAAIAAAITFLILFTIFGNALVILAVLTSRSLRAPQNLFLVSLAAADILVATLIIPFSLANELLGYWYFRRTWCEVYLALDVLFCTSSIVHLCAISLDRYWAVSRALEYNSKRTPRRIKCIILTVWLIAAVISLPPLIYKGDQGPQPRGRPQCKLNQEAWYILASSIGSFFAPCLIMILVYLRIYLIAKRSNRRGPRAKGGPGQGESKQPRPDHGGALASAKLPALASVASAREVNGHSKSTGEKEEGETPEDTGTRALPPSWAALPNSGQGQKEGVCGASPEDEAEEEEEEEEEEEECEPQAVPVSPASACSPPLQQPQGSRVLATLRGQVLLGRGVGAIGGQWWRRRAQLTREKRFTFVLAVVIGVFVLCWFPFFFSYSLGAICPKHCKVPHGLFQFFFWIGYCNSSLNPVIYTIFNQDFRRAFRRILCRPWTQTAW
# Protocol: as §1
# [6] = molecular target: T11, Adrenergic Alpha 2a receptor (Homo sapiens, UniProt P08913); conditions: agonist
# T11 construct: gene ADRA2A
# Protocol: as §1
# [7] = molecular target: T12, Serotonin 5-HT1b Receptor (Homo sapiens, UniProt P28222); conditions: agonist
# T12 construct: gene HTR1B
# Protocol: as §1
# Dopamine D1 = molecular target: T13, Dopamine D1 (Homo sapiens, UniProt P21728)
# T13 construct: gene DRD1
# Protocol: as §1
# Neurokinin Nk1 = molecular target: T14, Neurokinin Nk1 (Homo sapiens, UniProt P25103); conditions: agonist
# T14 construct: gene TACR1
# Protocol: as §1
# Serotonin 5-HT2b = molecular target: T15, Serotonin 5-HT2b (Homo sapiens, UniProt P41595); conditions: agonist
# T15 construct: gene HTR2B
# Protocol: as §1
# Histamine H1 = molecular target: T16, Histamine H1 (Homo sapiens, UniProt P35367)
# T16 construct: gene HRH1
# Protocol: as §1
# Muscarinic 3 = molecular target: T17, Muscarinic 3 (Homo sapiens, UniProt P20309)
# T17 construct: gene CHRM3
# Protocol: as §1
# T16 sequence (P35367 whole entry): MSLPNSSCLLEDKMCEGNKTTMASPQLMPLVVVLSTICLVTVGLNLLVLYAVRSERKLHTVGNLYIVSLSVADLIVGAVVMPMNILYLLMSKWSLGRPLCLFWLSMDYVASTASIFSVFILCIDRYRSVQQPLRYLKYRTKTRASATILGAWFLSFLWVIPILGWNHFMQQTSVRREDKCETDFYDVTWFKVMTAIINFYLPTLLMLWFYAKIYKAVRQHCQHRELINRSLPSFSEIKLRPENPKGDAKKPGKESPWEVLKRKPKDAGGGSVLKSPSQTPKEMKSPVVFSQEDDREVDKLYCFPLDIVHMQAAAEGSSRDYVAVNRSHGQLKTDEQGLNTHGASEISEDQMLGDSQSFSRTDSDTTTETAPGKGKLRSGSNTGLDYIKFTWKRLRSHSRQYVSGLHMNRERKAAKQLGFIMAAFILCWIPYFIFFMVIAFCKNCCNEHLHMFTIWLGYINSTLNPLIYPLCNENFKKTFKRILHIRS
# T17 sequence (P20309 whole entry): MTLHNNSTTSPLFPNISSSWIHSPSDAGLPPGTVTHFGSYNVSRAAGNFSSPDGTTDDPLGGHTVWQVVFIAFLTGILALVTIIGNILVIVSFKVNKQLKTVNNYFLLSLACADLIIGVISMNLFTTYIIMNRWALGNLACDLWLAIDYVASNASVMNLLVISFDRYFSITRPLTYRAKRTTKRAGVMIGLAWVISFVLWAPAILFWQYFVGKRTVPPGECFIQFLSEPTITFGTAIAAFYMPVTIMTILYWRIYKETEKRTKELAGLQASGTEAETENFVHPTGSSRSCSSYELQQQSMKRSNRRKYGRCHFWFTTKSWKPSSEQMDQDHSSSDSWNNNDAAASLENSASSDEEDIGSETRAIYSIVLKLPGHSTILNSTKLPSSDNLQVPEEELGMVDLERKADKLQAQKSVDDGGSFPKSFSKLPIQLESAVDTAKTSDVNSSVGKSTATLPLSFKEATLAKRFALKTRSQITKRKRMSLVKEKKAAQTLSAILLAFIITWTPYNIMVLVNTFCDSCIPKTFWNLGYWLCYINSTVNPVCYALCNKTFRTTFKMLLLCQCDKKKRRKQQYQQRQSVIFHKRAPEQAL
# T13 sequence (P21728 whole entry): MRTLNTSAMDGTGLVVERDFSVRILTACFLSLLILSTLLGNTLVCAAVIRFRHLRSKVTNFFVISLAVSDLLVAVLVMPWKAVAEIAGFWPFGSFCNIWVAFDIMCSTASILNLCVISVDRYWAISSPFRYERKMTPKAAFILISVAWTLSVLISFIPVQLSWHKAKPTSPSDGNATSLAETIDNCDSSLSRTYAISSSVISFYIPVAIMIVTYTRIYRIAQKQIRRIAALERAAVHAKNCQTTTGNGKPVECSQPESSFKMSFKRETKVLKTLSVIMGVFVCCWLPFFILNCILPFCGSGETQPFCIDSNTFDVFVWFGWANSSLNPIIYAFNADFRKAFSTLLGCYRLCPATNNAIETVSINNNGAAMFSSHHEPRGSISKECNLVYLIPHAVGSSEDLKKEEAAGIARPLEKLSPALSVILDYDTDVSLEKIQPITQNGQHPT
# T1 sequence (P08588 whole entry): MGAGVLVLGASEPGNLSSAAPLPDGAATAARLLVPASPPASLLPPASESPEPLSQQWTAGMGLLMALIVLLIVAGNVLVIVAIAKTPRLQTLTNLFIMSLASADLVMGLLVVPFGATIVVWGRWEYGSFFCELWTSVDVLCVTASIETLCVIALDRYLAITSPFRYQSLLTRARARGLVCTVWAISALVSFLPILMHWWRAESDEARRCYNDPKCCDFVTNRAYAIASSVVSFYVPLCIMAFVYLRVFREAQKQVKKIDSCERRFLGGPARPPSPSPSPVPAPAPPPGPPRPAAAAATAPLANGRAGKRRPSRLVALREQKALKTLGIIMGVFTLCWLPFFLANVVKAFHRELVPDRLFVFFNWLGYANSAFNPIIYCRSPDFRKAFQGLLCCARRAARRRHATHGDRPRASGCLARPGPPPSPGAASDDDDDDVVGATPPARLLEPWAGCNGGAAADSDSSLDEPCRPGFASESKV
# T3 sequence (P14416 whole entry, canonical isoform): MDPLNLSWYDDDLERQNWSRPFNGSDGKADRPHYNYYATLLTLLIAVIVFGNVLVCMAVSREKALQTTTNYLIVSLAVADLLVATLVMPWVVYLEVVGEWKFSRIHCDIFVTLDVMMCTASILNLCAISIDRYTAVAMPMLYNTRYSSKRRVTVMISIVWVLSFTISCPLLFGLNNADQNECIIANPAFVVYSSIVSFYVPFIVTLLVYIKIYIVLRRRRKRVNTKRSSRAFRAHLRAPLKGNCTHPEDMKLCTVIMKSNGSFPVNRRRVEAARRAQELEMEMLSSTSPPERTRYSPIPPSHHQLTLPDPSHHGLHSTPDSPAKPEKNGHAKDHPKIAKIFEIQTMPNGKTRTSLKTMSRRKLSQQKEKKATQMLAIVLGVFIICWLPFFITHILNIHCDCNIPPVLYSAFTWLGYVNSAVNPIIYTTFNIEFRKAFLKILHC
# T6 sequence (P07550 whole entry): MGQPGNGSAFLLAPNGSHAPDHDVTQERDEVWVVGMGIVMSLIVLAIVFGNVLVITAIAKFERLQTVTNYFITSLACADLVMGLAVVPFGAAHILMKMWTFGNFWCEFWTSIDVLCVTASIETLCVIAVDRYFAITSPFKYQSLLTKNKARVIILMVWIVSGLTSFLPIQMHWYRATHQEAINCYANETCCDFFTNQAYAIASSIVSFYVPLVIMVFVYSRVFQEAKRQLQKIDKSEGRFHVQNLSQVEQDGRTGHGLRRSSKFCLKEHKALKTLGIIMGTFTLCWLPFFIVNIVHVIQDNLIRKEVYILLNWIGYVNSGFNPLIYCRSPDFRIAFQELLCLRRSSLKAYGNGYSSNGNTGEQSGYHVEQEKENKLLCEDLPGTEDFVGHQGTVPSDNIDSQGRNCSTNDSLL
# T2 sequence (P08908 whole entry): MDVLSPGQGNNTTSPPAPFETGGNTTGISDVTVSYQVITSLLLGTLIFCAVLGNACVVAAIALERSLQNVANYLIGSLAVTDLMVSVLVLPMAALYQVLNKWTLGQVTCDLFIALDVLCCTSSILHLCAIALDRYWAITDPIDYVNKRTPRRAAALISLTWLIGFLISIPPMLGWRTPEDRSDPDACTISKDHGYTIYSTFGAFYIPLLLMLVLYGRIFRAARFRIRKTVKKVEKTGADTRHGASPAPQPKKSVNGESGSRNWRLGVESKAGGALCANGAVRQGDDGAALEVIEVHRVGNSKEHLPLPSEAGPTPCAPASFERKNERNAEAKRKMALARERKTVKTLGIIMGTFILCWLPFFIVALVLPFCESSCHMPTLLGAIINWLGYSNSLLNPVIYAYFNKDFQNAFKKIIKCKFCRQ
# T15 sequence (P41595 whole entry): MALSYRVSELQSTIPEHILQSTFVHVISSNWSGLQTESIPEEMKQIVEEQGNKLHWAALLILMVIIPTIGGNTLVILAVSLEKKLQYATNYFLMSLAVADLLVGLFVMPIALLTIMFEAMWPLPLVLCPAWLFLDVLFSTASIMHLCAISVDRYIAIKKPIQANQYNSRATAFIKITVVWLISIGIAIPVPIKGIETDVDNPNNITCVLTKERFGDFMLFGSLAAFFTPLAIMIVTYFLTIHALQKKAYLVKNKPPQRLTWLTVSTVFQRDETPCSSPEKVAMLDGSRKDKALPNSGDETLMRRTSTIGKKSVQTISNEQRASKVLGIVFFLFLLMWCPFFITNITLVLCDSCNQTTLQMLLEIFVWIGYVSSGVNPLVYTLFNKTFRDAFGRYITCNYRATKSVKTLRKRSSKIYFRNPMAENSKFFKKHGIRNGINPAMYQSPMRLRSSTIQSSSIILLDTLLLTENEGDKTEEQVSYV
# T4 sequence (P29274 whole entry): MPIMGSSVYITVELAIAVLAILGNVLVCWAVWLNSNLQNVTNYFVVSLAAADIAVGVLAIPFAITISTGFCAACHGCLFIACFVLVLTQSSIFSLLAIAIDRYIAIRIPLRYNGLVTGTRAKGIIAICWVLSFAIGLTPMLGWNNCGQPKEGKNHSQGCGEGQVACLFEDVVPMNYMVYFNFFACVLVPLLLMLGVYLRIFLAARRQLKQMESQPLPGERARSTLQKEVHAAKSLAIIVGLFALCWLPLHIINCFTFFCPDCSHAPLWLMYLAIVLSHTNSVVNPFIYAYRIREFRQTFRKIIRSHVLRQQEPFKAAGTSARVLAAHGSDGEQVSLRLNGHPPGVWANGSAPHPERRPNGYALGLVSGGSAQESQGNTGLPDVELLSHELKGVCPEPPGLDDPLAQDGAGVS
# T8 sequence (P30542 whole entry): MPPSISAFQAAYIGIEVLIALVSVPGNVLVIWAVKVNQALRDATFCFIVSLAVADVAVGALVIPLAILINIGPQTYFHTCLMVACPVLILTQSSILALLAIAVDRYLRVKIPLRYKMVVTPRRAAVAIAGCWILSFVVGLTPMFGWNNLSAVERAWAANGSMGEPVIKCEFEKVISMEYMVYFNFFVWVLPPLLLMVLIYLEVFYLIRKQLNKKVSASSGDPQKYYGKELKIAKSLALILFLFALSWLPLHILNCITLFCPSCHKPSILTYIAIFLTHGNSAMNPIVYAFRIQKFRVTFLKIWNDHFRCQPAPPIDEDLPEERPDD
# T5 sequence (P32239 whole entry): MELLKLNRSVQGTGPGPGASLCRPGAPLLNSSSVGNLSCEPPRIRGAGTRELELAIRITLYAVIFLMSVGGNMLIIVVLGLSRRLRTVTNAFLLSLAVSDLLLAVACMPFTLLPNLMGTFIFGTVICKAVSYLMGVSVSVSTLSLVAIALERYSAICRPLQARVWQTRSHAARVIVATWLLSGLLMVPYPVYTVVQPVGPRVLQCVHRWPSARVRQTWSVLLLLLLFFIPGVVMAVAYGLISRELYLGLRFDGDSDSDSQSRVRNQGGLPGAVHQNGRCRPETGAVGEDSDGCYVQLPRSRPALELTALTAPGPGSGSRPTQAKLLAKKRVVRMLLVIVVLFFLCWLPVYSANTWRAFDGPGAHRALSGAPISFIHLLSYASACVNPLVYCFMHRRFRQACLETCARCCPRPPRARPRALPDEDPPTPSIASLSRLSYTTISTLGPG
structure (smiles),measurement,setting,value
"O=C(O)c1sc2cc(F)sc2c1Cl [PF-07208254, 3-chloro-5-fluorothieno[3,2-b]thiophene-2-carboxylic acid]",% (agonism) PF-07208254,"[1]; 100 µM, agonist",2%
same,% Inhibition (antagonism) PF-07208254,"[1]; 100 µM, antagonist",8%
same,% (agonism) PF-07208254,[2]; 100 µM,-1%
same,% (agonism) PF-07208254,"Dopamine 2S; 100 µM, agonist",-29%
same,% Inhibition (antagonism) PF-07208254,"Dopamine 2S; 100 µM, antagonist",-7%
same,% (agonism) PF-07208254,Adenosine A2a Receptor; 100 µM,0%
same,% (agonism) PF-07208254,Cholecystokinin 2; 100 µM,0%
same,% (agonism) PF-07208254,"[3]; 100 µM, agonist",-5%
same,% Inhibition (antagonism) PF-07208254,"[3]; 100 µM, antagonist",10%
same,% (agonism) PF-07208254,"[4]; 100 µM, agonist",4%
same,% Inhibition (antagonism) PF-07208254,"[4]; 100 µM, antagonist",-5%
same,% (agonism) PF-07208254,Adenosine A1 Receptor; 100 µM,0%
same,% Inhibition (antagonism) PF-07208254,Mu Opiod; 100 µM,2%
same,% (agonism) PF-07208254,"[5]; 100 µM, agonist",-4%
same,% Inhibition (antagonism) PF-07208254,"[5]; 100 µM, antagonist",-2%
same,% (agonism) PF-07208254,[6]; 100 µM,-1%
same,% (agonism) PF-07208254,[7]; 100 µM,39%
same,% (agonism) PF-07208254,"Dopamine D1; 100 µM, agonist",-4%
same,% Inhibition (antagonism) PF-07208254,"Dopamine D1; 100 µM, antagonist",-5%
same,% (agonism) PF-07208254,Neurokinin Nk1; 100 µM,-3%
same,% (agonism) PF-07208254,Serotonin 5-HT2b; 100 µM,-5%
same,% (agonism) PF-07208254,"Histamine H1; 100 µM, agonist",-1%
same,% Inhibition (antagonism) PF-07208254,"Histamine H1; 100 µM, antagonist",17%
same,% (agonism) PF-07208254,"Muscarinic 3; 100 µM, agonist",0%
same,% Inhibition (antagonism) PF-07208254,"Muscarinic 3; 100 µM, antagonist",18%
"CCC1(COc2ccc(-c3csc(-c4ccccc4C(=O)O)n3)cn2)CC1 [PF-07247685, 2-(4-{6-[(1-ethylcyclopropyl)methoxy]pyridin-3-yl}-1,3-thiazol-2-yl)benzoic acid]",% (agonism) PF-07247685,"[1]; 10 µM, agonist",6%
same,% Inhibition (antagonism) PF-07247685,"[1]; 10 µM, antagonist",27%
same,% (agonism) PF-07247685,[2]; 10 µM,-1%
same,% (agonism) PF-07247685,"Dopamine 2S; 10 µM, agonist",-17%
same,% Inhibition (antagonism) PF-07247685,"Dopamine 2S; 10 µM, antagonist",-7%
same,% (agonism) PF-07247685,Adenosine A2a Receptor; 10 µM,1%
same,% (agonism) PF-07247685,Cholecystokinin 2; 10 µM,-8%
same,% (agonism) PF-07247685,"[3]; 10 µM, agonist",-6%
same,% Inhibition (antagonism) PF-07247685,"[3]; 10 µM, antagonist",3%
same,% (agonism) PF-07247685,"[4]; 10 µM, agonist",4%
same,% Inhibition (antagonism) PF-07247685,"[4]; 10 µM, antagonist",10%
same,% (agonism) PF-07247685,Adenosine A1 Receptor; 10 µM,0%
same,% Inhibition (antagonism) PF-07247685,Mu Opiod; 10 µM,-3%
same,% (agonism) PF-07247685,"[5]; 10 µM, agonist",-1%
same,% Inhibition (antagonism) PF-07247685,"[5]; 10 µM, antagonist",-1%
same,% (agonism) PF-07247685,[6]; 10 µM,0%
same,% (agonism) PF-07247685,[7]; 10 µM,34%
same,% (agonism) PF-07247685,"Dopamine D1; 10 µM, agonist",4%
same,% Inhibition (antagonism) PF-07247685,"Dopamine D1; 10 µM, antagonist",5%
same,% (agonism) PF-07247685,Neurokinin Nk1; 10 µM,-4%
same,% (agonism) PF-07247685,Serotonin 5-HT2b; 10 µM,-5%
same,% (agonism) PF-07247685,"Histamine H1; 10 µM, agonist",-5%
same,% Inhibition (antagonism) PF-07247685,"Histamine H1; 10 µM, antagonist",-2%
same,% (agonism) PF-07247685,"Muscarinic 3; 10 µM, agonist",-1%
same,% Inhibition (antagonism) PF-07247685,"Muscarinic 3; 10 µM, antagonist",3%
